Assay results published in patent publication US20250353853A1, “FLAVIVIRUS INHIBITORS” (IRBM S.P.A., priority 2022, published 2025).
Where two headings read alike, the source gives them in different places.

Legend:
[1] = biological target: West Nile Virus (WNV) NS2B-NS3 protease (West Nile virus (WNV), UniProt P06935); assay: WNV Protease Inhibition Assay; assay type: biochemical
Text: WNV Protease Inhibition Assay

[2] = system: ZIKV replicon in Vero cells; assay: ZIKV Replication Inhibition Assay (replicon, NanoLuc); details: Zika virus, Vero, 72 h, read-out: Zika Replicon EC50
[3] = 2 nM protease, 10 μM pERTKR-AMC substrate, read-out: WNV Protease IC50

Chain of West Nile Virus (WNV) NS2B-NS3 protease (P06935 1502-1679 limits assumed): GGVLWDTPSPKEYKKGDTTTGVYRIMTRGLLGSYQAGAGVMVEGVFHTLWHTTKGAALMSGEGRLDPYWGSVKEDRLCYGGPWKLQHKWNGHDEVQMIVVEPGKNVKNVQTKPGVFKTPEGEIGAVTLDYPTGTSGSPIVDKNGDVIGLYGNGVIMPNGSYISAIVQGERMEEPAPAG
Chain of West Nile Virus (WNV) NS2B-NS3 protease (P06935 1371-1501 partner limits assumed): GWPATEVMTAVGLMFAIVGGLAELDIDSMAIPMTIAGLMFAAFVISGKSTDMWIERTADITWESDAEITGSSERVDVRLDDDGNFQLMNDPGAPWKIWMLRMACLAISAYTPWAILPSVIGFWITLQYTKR

| SMILES | IC50 [1, 3] [nM] | EC50 [2] [nM] | IC50 [1] [nM] | IC50 ([1]; read-out: WNV Protease IC50, 2 nM protease, 10 μM pERTKR-AMC substrate) [nM] |
| --- | --- | --- | --- | --- |
| O=C([N-]c1c[n+](Cc2ccc(Br)cc2)no1)Nc1cccc(C(F)(F)F)c1 [Example 19, (3-(4-bromobenzyl)-1,2,3-oxadiazol-3-ium-5-yl)((3-(trifluoromethyl)phenyl)carbamoyl)amide] | < 100 | 100 to 1000 |  |  |
| O=C([N-]c1c[n+](Cc2ccc(-c3cccnc3)cc2)no1)Nc1cccc(C(F)(F)F)c1 [Example 22, (3-(4-(pyridin-3-yl)benzyl)-1,2,3-oxadiazol-3-ium-5-yl)((3-(trifluoromethyl)phenyl)carbamoyl)amide] |  | 100 to 1000 | 100 to 1000 |  |
| Cn1cc(-c2ccc(C[n+]3cc([N-]C(=O)Nc4cccc(C(F)(F)F)c4)on3)cc2)cn1 [Example 23, (3-(4-(1-methyl-1H-pyrazol-4-yl)benzyl)-1,2,3-oxadiazol-3-ium-5-yl)((3-(trifluoromethyl)phenyl)carbamoyl)amide] |  | 100 to 1000 | 100 to 1000 |  |
| O=C([N-]c1c[n+](Cc2ccc(-c3cncnc3)cc2)no1)Nc1cccc(C(F)(F)F)c1 [Example 26, (3-(4-(Pyrimidin-5-yl)benzyl)-1,2,3-oxadiazol-3-ium-5-yl)((3-(trifluoromethyl)phenyl)carbamoyl)amide] |  | 100 to 1000 | 100 to 1000 |  |
| O=C([N-]c1c[n+](Cc2ccc(-c3ccncc3)cc2)no1)Nc1cccc(C(F)(F)F)c1 [Example 39, (3-(4-(pyridin-4-yl)benzyl)-1,2,3-oxadiazol-3-ium-5-yl)((3-(trifluoromethyl)phenyl)carbamoyl)amide] |  | 100 to 1000 | 100 to 1000 |  |
| O=C([N-]c1c[n+]([C@@H](Cc2ccccc2)CN2CCCC2)no1)Nc1cccc(C(F)(F)F)c1 [Example 40, (S)-(3-(1-phenyl-3-(pyrrolidin-1-yl)propan-2-yl)-1,2,3-oxadiazol-3-ium-5-yl)((3-(trifluoromethyl)phenyl)carbamoyl)amide] |  | 1000 to 20000 | 1000 to 20000 |  |
| COc1ncc(-c2ccc(C[n+]3cc([N-]C(=O)Nc4cccc(C(F)(F)F)c4)on3)cc2)cn1 [Example 41, (3-(4-(2-methoxypyrimidin-5-yl)benzyl)-1,2,3-oxadiazol-3-ium-5-yl)((3-(trifluoromethyl)phenyl)carbamoyl)amide] | < 100 | 100 to 1000 |  |  |
| O=C([N-]c1c[n+](Cc2ccc(-c3cnccn3)cc2)no1)Nc1cccc(C(F)(F)F)c1 [Example 42, (3-(4-(pyrazin-2-yl)benzyl)-1,2,3-oxadiazol-3-ium-5-yl)((3-(trifluoromethyl)phenyl)carbamoyl)amide] |  | 100 to 1000 | 100 to 1000 |  |
| O=C([N-]c1c[n+](C(c2ccccc2)C(F)(F)F)no1)Nc1cccc(C(F)(F)F)c1 (stereo not drawn) [Example 44, (3-(2,2,2-trifluoro-1-phenylethyl)-1,2,3-oxadiazol-3-ium-5-yl)((3-(trifluoromethyl)phenyl)carbamoyl)amide] |  | > 20000 | 1000 to 20000 |  |
| O=C([N-]c1c[n+]([C@@H](CO)Cc2ccccc2)no1)Nc1cccc(C(F)(F)F)c1 [Example 45] |  |  |  | 1000 to 20000 |
| O=C([N-]c1c[n+](Cc2cccc(Br)c2)no1)Nc1cccc(C(F)(F)F)c1 [Example 46, (3-(3-bromobenzyl)-1,2,3-oxadiazol-3-ium-5-yl)((3-(trifluoromethyl)phenyl)carbamoyl)amide] |  | 1000 to 20000 | 100 to 1000 |  |
| O=C([N-]c1c[n+](Cc2ccc(I)cc2)no1)Nc1cccc(C(F)(F)F)c1 [Example 47, (3-(4-iodobenzyl)-1,2,3-oxadiazol-3-ium-5-yl)((3-(trifluoromethyl)phenyl)carbamoyl)amide] |  | 100 to 1000 | 100 to 1000 |  |
| O=C([N-]c1c[n+](Cc2ccc(-c3cnoc3)cc2)no1)Nc1cccc(C(F)(F)F)c1 [Example 48, (3-(4-(isoxazol-4-yl)benzyl)-1,2,3-oxadiazol-3-ium-5-yl)((3-(trifluoromethyl)phenyl)carbamoyl)amide] |  | 100 to 1000 | 100 to 1000 |  |
| O=C([N-]c1c[n+](Cc2cccc(-c3cncnc3)c2)no1)Nc1cccc(C(F)(F)F)c1 [Example 50, (3-(3-(Pyrimidin-5-yl)benzyl)-1,2,3-oxadiazol-3-ium-5-yl)((3-(trifluoromethyl)phenyl)carbamoyl)amide] |  | 100 to 1000 | 100 to 1000 |  |
| O=C([N-]c1c[n+](Cc2cccc(-c3cccnc3)c2)no1)Nc1cccc(C(F)(F)F)c1 [Example 51, (3-(3-(pyridin-3-yl)benzyl)-1,2,3-oxadiazol-3-ium-5-yl)((3-(trifluoromethyl)phenyl)carbamoyl)amide] |  | 100 to 1000 | 100 to 1000 |  |
| Cn1cc(-c2cccc(C[n+]3cc([N-]C(=O)Nc4cccc(C(F)(F)F)c4)on3)c2)cn1 [Example 52, (3-(3-(1-methyl-1H-pyrazol-4-yl)benzyl)-1,2,3-oxadiazol-3-ium-5-yl)((3-(trifluoromethyl)phenyl)carbamoyl)amide] |  | 100 to 1000 | 100 to 1000 |  |

| SMILES | IC50 [1, 3] [nM] | EC50 [2] [nM] | IC50 [1] [nM] | IC50 ([1]; read-out: WNV Protease IC50, 2 nM protease, 10 μM pERTKR-AMC substrate) [nM] |
| --- | --- | --- | --- | --- |
| COc1ncc(-c2cccc(C[n+]3cc([N-]C(=O)Nc4cccc(C(F)(F)F)c4)on3)c2)cn1 [Example 53, (3-(3-(2-methoxypyrimidin-5-yl)benzyl)-1,2,3-oxadiazol-3-ium-5-yl)((3-(trifluoromethyl)phenyl)carbamoyl)amide] |  | 100 to 1000 | 100 to 1000 |  |
| O=C([N-]c1c[n+](Cc2ccc(I)cc2)no1)Nc1cncc(C(F)(F)F)c1 [Example 55, (3-(4-iodobenzyl)-1,2,3-oxadiazol-3-ium-5-yl)((5-(trifluoromethyl)pyridin-3-yl)carbamoyl)amide] |  | 100 to 1000 | 100 to 1000 |  |
| O=C([N-]c1c[n+](Cc2ccc(-c3cncnc3)cc2)no1)Nc1cncc(C(F)(F)F)c1 [Example 57, (3-(4-(pyrimidin-5-yl)benzyl)-1,2,3-oxadiazol-3-ium-5-yl)((5-(trifluoromethyl)pyridin-3-yl)carbamoyl)amide] | < 100 | < 100 |  |  |
| COc1ncc(-c2ccc(C[n+]3cc([N-]C(=O)Nc4cncc(C(F)(F)F)c4)on3)cc2)cn1 [Example 58, (3-(4-(2-methoxypyrimidin-5-yl)benzyl)-1,2,3-oxadiazol-3-ium-5-yl)((5-(trifluoromethyl)pyridin-3-yl)carbamoyl)amide] | < 100 | 100 to 1000 |  |  |
| O=C([N-]c1c[n+]([C@@H]2CCC[C@H]2c2ccccc2)no1)Nc1cccc(C(F)(F)F)c1 [Example 59, (3-((1R,2S)-2-phenylcyclopentyl)-1,2,3-oxadiazol-3-ium-5-yl)((3-(trifluoromethyl)phenyl)carbamoyl)amide] |  | 100 to 1000 | 1000 to 20000 |  |
| Cc1ncncc1-c1ccc(C[n+]2cc([N-]C(=O)Nc3cccc(C(F)(F)F)c3)on2)cc1 [Example 60, (3-(4-(4-methylpyrimidin-5-yl)benzyl)-1,2,3-oxadiazol-3-ium-5-yl)((3-(trifluoromethyl)phenyl)carbamoyl)amide] | < 100 | < 100 |  |  |
| O=C([N-]c1c[n+](Cc2ccc(-c3ccnnc3)cc2)no1)Nc1cccc(C(F)(F)F)c1 [Example 61, (3-(4-(pyridazin-4-yl)benzyl)-1,2,3-oxadiazol-3-ium-5-yl)((3-(trifluoromethyl)phenyl)carbamoyl)amide] | < 100 | < 100 |  |  |
| COc1ncncc1-c1ccc(C[n+]2cc([N-]C(=O)Nc3cccc(C(F)(F)F)c3)on2)cc1 [Example 62, (3-(4-(4-methoxypyrimidin-5-yl)benzyl)-1,2,3-oxadiazol-3-ium-5-yl)((3-(trifluoromethyl)phenyl)carbamoyl)amide] | < 100 | 100 to 1000 |  |  |
| COc1cc(-c2ccc(C[n+]3cc([N-]C(=O)Nc4cccc(C(F)(F)F)c4)on3)cc2)ccn1 [Example 63, (3-(4-(2-methoxypyridin-4-yl)benzyl)-1,2,3-oxadiazol-3-ium-5-yl)((3-(trifluoromethyl)phenyl)carbamoyl)amide] |  | 100 to 1000 | 100 to 1000 |  |
| O=C([N-]c1c[n+](Cc2ccc(-c3ccnc(O)c3)cc2)no1)Nc1cccc(C(F)(F)F)c1 [Example 64, (3-(4-(2-hydroxypyridin-4-yl)benzyl)-1,2,3-oxadiazol-3-ium-5-yl)((3-(trifluoromethyl)phenyl)carbamoyl)amide] | < 100 | 100 to 1000 |  |  |
| O=C([N-]c1c[n+](Cc2ccc(-c3ccncc3)cc2)no1)Nc1cncc(C(F)(F)F)c1 [Example 67, (3-(4-(pyridin-4-yl)benzyl)-1,2,3-oxadiazol-3-ium-5-yl)((5-(trifluoromethyl)pyridin-3-yl)carbamoyl)amide] |  | 100 to 1000 | 100 to 1000 |  |
| O=C([N-]c1c[n+](Cc2ccc(-c3cnn4c3CNCC4)cn2)no1)Nc1cccc(C(F)(F)F)c1 [Example 124, (3-((5-(4,5,6,7-tetrahydropyrazolo[1,5-a]pyrazin-3-yl)pyridin-2-yl)methyl)-1,2,3-oxadiazol-3-ium-5-yl)((3-(trifluoromethyl)phenyl)carbamoyl)amide] |  | 100 to 1000 |  |  |
| Cc1noc(C)c1-c1cnc(C[n+]2cc([N-]C(=O)Nc3cccc(C(F)(F)F)c3)on2)cn1 [Example 169, (3-((5-(3,5-dimethylisoxazol-4-yl)pyrazin-2-yl)methyl)-1,2,3-oxadiazol-3-ium-5-yl)((3-(trifluoromethyl)phenyl)carbamoyl)amide] |  | 100 to 1000 |  |  |
| Cc1noc(C)c1-c1ccc(C[n+]2cc([N-]C(=O)Nc3nccc(C(F)(F)F)n3)on2)nc1 [Example 171, (3-((5-(3,5-dimethylisoxazol-4-yl)pyridin-2-yl)methyl)-1,2,3-oxadiazol-3-ium-5-yl)((4-(trifluoromethyl)pyrimidin-2-yl)carbamoyl)amide] |  | 1000 to 20000 |  |  |
| Cc1noc(C)c1-c1ncc(C[n+]2cc([N-]C(=O)Nc3cccc(C(F)(F)F)c3)on2)cn1 [Example 174, (3-((2-(3,5-dimethylisoxazol-4-yl)pyrimidin-5-yl)methyl)-1,2,3-oxadiazol-3-ium-5-yl)((3-(trifluoromethyl)phenyl)carbamoyl)amide] |  | 100 to 1000 |  |  |
